# Results reported in patent US20260274798A1, “PENTAMIDINE ANALOGUE POLYMORPHS, FORMULATIONS, AND METHODS THEREOF” (AURANSA INC., priority 2023, published 2026).
# Entries after “also recorded” stand apart in the source; their conditions may differ.
# Assays:
# Type in all cases: physicochemical
# [1] = Approximate solvent solubility screen of Compound A diacetate salt in 18 solvent systems; conditions: thermodynamic from solid
# Experimental: Approximately 380 mg of Form 1 was dissolved in 35 mL of methanol and rotary evaporated. […] A sub-sample was taken for further characterization (TG/DSC, ^1H NMR and PLM). The crystalline material isolated post rotary-evaporation was re-dissolved in 27 mL of water. The solution remained slightly turbid so was syringe filtered to give a clear solution which was split equally among 18 vials to give approximately 20 mg of material per vial. The samples were then frozen at −50° C. before being lyophilized for ca. 72 hours. […] This material was used as input for the solvent solubility screen described below.
# The solubility of Compound A diacetate salt was tested in 18 solvent systems. The appropriate solvent was added in 100 μL aliquots to approximately 20 mg of the lyophilized Compound A diacetate salt. Between each addition, the mixture was checked for dissolution and where no dissolution was apparent, the mixture was heated to ca. 40° C. and checked again. This procedure was continued until dissolution was observed or until 100 volumes of solvent had been added.
# The solids were then isolated via centrifugal filtration and analyzed by XRPD. If the samples fully dissolved on addition of solvent (methanol and water only), they were uncapped and left to evaporate at ambient. Any solids recovered post-evaporation were then analyzed by XRPD.
# [2] = Thermodynamic solubility in water and a pH 7.4 phosphate buffer; conditions: slurry agitated at ambient ca. 24 hours, HPLC; for solubility at 24 h: thermodynamic from solid; for solubility: diacetate
# Experimental: (§1) 25.6 mL of 2-propanol was added to the lyophilized Compound A diacetate salt to form a slurry. The slurry was then temperature cycled between ambient and 40° C. in 4 hour cycles with agitation for ca. 24 hours. The slurry was then filtered and the isolated solids collected into a scintillation vial. A subsample was analyzed by XRPD and the vial was left uncapped to allow the solids to […] at ambient for ca. 24 hours. The material was then re-analyzed by XRPD post-drying and fully characterized using the following techniques: TG/DSC, DSC, DVS with post-DVS XRPD analysis, PLM, FT-IR, ^1H NMR, Purity by HPLC, TG/DSC with post TG/DSC XRPD analysis, and 7 Day Stability Assessment (ca. 10 mg of the material was stored at 40° C./75% RH. 80° C. and ambient light and humidity for 1 week. The solids were then analyzed by XRPD and purity obtained by HPLC). Thermodynamic solubility in water and a pH 7.4 phosphate buffer (The appropriate media was added in 100 μL aliquots to ca. 20 mg of the material to form a slurry. The samples were then sealed and agitated at ambient for ca. 24 hours before being centrifuge filtered. The isolated solids were analyzed by XRPD and the concentration of the mother liquors determined by HPLC).
# The material appears highly insoluble in the phosphate buffer with all Forms having a solubility of 0.3 mg/mL except from Form 2 which has a solubility of 0.2 mg/mL.
# [3] = 7 Day Stability Assessment (XRPD form and HPLC purity after storage); conditions: diacetate; for one-week stability: form by XRPD: 1 week (Form 1: 2 and 7 days)
# Experimental: as §1
# [4] = Dynamic vapour sorption (DVS) with post-DVS XRPD; conditions: for form of recovered solid by post-DVS XRPD: after DVS cycles; for form conversion during DVS / weight loss on form conversion during DVS: at 50% RH
# Experimental: Approximately, 10-20 mg of sample was placed into a mesh vapour sorption balance pan and loaded into a DVS Intrinsic dynamic vapour sorption balance by Surface Measurement Systems. The sample was subjected to a ramping profile from 40-90% relative humidity (RH) at 10% increments, maintaining the sample at each step until a stable weight had been achieved (dm/dt 0.004%, minimum step length 30 minutes, maximum step length 500 minutes) at 25° C. After completion of the sorption cycle, the sample was dried using the same procedure to 0% RH and then a second sorption cycle back to 40% RH. Two cycles were performed. The weight change during the sorption/desorption cycles were plotted, allowing for the hygroscopic nature of the sample to be determined. XRPD analysis was then carried out on any solid retained.
# [5] = Competitive slurry experiments of Forms 1, 3, 8 and 9
# Experimental: Approximately 5 mg of Compound A diacetate salt Forms 1, 3, 8 and 9 were combined into 8×4 mL vials. The appropriate solvent was added to form a slurry and the samples were shaken at ambient or 60° C. for ca. 48 hours. The samples were then removed from shaking and centrifuge filtered. […] The solids were recovered from the XRPD plate and placed back on to shake as before for an additional 3 days before being re-analyzed by XRPD. […]
# [6] = ambient temperature and humidity
# [7] = Ethyl Acetate, 2000 μL, Ambient
compound,measurement,setting,value
"CC(=O)O.CC(=O)O.N=C(N)c1ccc(OCCCCCOc2ccc(C(=N)N)nc2)cc1 [Compound A diacetate salt, 5-((5-(4-carbamimidoylphenoxy)pentyl)oxy)picolinimidamide diacetate]",solubility,"[1]; all solvents investigated except methanol and water, organic solvent or mixture, read-out: solubility",< 5000 µg/mL
same,solubility,"[1]; organic solvent or mixture, 1,4-Dioxane, lyophilized material, ambient to ca. 40° C., read-out: Approximate Solvent Solubility",≤ 5000 µg/mL
same,solubility,"[1]; organic solvent or mixture, 2-Propanol, lyophilized material, ambient to ca. 40° C., read-out: Approximate Solvent Solubility",≤ 5000 µg/mL
same,solubility,"[1]; organic solvent or mixture, 2-methyl THF, lyophilized material, ambient to ca. 40° C., read-out: Approximate Solvent Solubility",≤ 5000 µg/mL
same,solubility,"[1]; organic solvent or mixture, Acetone, lyophilized material, ambient to ca. 40° C., read-out: Approximate Solvent Solubility",≤ 5000 µg/mL
same,solubility,"[1]; organic solvent or mixture, Acetonitrile, lyophilized material, ambient to ca. 40° C., read-out: Approximate Solvent Solubility",≤ 5000 µg/mL
same,solubility,"[1]; organic solvent or mixture, Dichloromethane, lyophilized material, ambient to ca. 40° C., read-out: Approximate Solvent Solubility",≤ 5000 µg/mL
same,solubility,"[1]; organic solvent or mixture, Dimethylsulfoxide, lyophilized material, ambient to ca. 40° C., read-out: Approximate Solvent Solubility",≤ 5000 µg/mL
same,solubility,"[1]; organic solvent or mixture, Ethanol, lyophilized material, ambient to ca. 40° C., read-out: Approximate Solvent Solubility",≤ 5000 µg/mL
same,solubility,"[1]; organic solvent or mixture, Ethyl Acetate, lyophilized material, ambient to ca. 40° C., read-out: Approximate Solvent Solubility",≤ 5000 µg/mL
same,solubility,"[1]; organic solvent or mixture, Isopropyl Acetate, lyophilized material, ambient to ca. 40° C., read-out: Approximate Solvent Solubility",≤ 5000 µg/mL
same,solubility,"[1]; organic solvent or mixture, Methanol, lyophilized material, ambient to ca. 40° C., read-out: Approximate Solvent Solubility",20000 µg/mL
same,solubility,"[1]; organic solvent or mixture, Methylethyl Ketone, lyophilized material, ambient to ca. 40° C., read-out: Approximate Solvent Solubility",≤ 5000 µg/mL
same,solubility,"[1]; organic solvent or mixture, N,N′-Dimethylacetamide, lyophilized material, ambient to ca. 40° C., read-out: Approximate Solvent Solubility",≤ 5000 µg/mL
same,solubility,"[1]; organic solvent or mixture, N,N′-Dimethylformamide, lyophilized material, ambient to ca. 40° C., read-out: Approximate Solvent Solubility",≤ 5000 µg/mL
same,solubility,"[1]; organic solvent or mixture, N-Methylpyrrolidone, lyophilized material, ambient to ca. 40° C., read-out: Approximate Solvent Solubility",≤ 5000 µg/mL
same,solubility,"[1]; organic solvent or mixture, Tetrahydrofuran, lyophilized material, ambient to ca. 40° C., read-out: Approximate Solvent Solubility",≤ 5000 µg/mL
same,solubility,"[1]; organic solvent or mixture, Toluene, lyophilized material, ambient to ca. 40° C., read-out: Approximate Solvent Solubility",≤ 5000 µg/mL
same,solubility,"[1]; Water, lyophilized material, ambient to ca. 40° C., read-out: Approximate Solvent Solubility",50000 µg/mL
"CC(=O)O.CC(=O)O.N=C(N)c1ccc(OCCCCCOc2ccc(C(=N)N)nc2)cc1 [Form 2, 5-((5-(4-carbamimidoylphenoxy)pentyl)oxy)picolinimidamide diacetate]",solubility at 24 h,"[2]; phosphate buffer, pH 7.4, aqueous buffer, pH 7.4 Phosphate Buffer",200 µg/mL
"CC(=O)O.CC(=O)O.N=C(N)c1ccc(OCCCCCOc2ccc(C(=N)N)nc2)cc1 [Form 8, 5-((5-(4-carbamimidoylphenoxy)pentyl)oxy)picolinimidamide diacetate]",one-week stability: form by XRPD,[3]; 40° C./75% RH,convert to Form 1
same,one-week stability: form by XRPD,[3]; 80° C.,no change in form
same,one-week stability: form by XRPD,[3]; [6],convert to Form 1; also recorded: partial conversion to Form 1
same,form of recovered solid by post-DVS XRPD,"[4]; 25° C., diacetate",conversion of Form 8 to Form 1
same,form conversion during DVS,"[4]; 25° C., diacetate",desolvate and convert to Form 1
same,weight loss on form conversion during DVS,"[4]; 25° C., diacetate",8.2 wt. %
same,DVS mass increase,"[4]; at 90% RH, diacetate",hygroscopic with a 1.6% mass
same,solubility,[2]; Water,38700 µg/mL
same,solubility,[2]; pH 7.4 Phosphate Buffer,300 µg/mL
"CC(=O)O.CC(=O)O.N=C(N)c1ccc(OCCCCCOc2ccc(C(=N)N)nc2)cc1 [Form 3, 5-((5-(4-carbamimidoylphenoxy)pentyl)oxy)picolinimidamide diacetate]",one-week stability: form by XRPD,[3]; 40° C./75% RH,convert to Form 1
same,one-week stability: form by XRPD,[3]; 80° C.,no change
same,one-week stability: form by XRPD,[3]; [6],convert to Form 1
same,form of recovered solid by post-DVS XRPD,"[4]; 25° C., diacetate",conversion to Form 9
same,form conversion during DVS,"[4]; 25° C., diacetate",convert to the hydrated Form 9; also recorded: convert to Form 9 (dihydrate)
same,weight loss on form conversion during DVS,"[4]; 25° C., diacetate",approximately 4 wt. %
same,solubility,[2]; Water,38500 µg/mL
same,solubility,[2]; pH 7.4 Phosphate Buffer,200 µg/mL
CC(=O)O.CC(=O)O.N=C(N)c1ccc(OCCCCCOc2ccc(C(=N)N)nc2)cc1,XRPD Pattern (2 Days),"[5]; Acetone, 1000 μL, 60° C.",All patterns
same,XRPD Pattern (5 Days),"[5]; Acetone, 1000 μL, 60° C.",All patterns
same,XRPD Pattern (2 Days),"[5]; Acetone, 2000 μL, Ambient",All patterns
same,XRPD Pattern (5 Days),"[5]; Acetone, 2000 μL, Ambient",All patterns
same,XRPD Pattern (2 Days),"[5]; DCM, 1000 μL, 60° C.",All patterns
same,XRPD Pattern (5 Days),"[5]; DCM, 1000 μL, 60° C.",All patterns
same,XRPD Pattern (2 Days),"[5]; DCM, 2000 μL, Ambient",All patterns
same,XRPD Pattern (5 Days),"[5]; DCM, 2000 μL, Ambient",All patterns
same,XRPD Pattern (2 Days),"[5]; Ethanol, 1000 μL, 60° C.",8 + 1
same,XRPD Pattern (2 Days),"[5]; Ethanol, 2000 μL, Ambient",8 + 1
same,XRPD Pattern (5 Days),"[5]; Ethanol, 2000 μL, Ambient",6
same,XRPD Pattern (2 Days),[5]; [7],All patterns
same,XRPD Pattern (5 Days),[5]; [7],All patterns
same,XRPD Pattern (2 Days),"[5]; Etyl Acetate, 1000 μL, 60° C.",All patterns
same,XRPD Pattern (5 Days),"[5]; Etyl Acetate, 1000 μL, 60° C.",1 + 8
"CC(=O)O.CC(=O)O.N=C(N)c1ccc(OCCCCCOc2ccc(C(=N)N)nc2)cc1 [Form 1, 5-((5-(4-carbamimidoylphenoxy)pentyl)oxy)picolinimidamide diacetate]",one-week stability: form by XRPD,[3]; 40° C./75% RH,no change in form
same,one-week stability: form by XRPD,[3]; 80° C.,no change in form
same,one-week stability: form by XRPD,[3]; [6],no change in form
same,1 Week Stability,"[3]; form by XRPD after storage at 40° C./75% RH, ambient or 80° C.",No change in form by XRPD
same,hygroscopicity by DVS,"[4]; DVS, 25° C., diacetate",slightly hygroscopic
same,DVS: form post-DVS,[4]; XRPD post-DVS,water) at 90% RH. No change
same,form of recovered solid by post-DVS XRPD,"[4]; 25° C., diacetate",remained as the received pattern 1; also recorded: No change in form
same,DVS,"[4]; hygroscopicity / form change during DVS cycle, diacetate",Slightly hygroscopic
same,solubility,[2]; pH 7.4 Phosphate Buffer,300 µg/mL
same,solubility at 24 h,[2]; water,49500 µg/mL
